The subject of one data set is PANC-1. Description: Antitumor activity against human PANC-1 cells xenografted in BALB/c mouse assessed as reduction in tumor volume at 2 mg/kg, iv administered once every 2 days and measured on day 74 relative to control. It is filed as functional. Details: scale not given: the % may be the effect or the level left. The settings on record: time 74 day.
Data set [1] in a line: Half life in BALB/c mouse plasma at 5 mg/kg, iv by LC-MS/MS analysis.

In the case of `COc1cccc2c1C(=O)c1c(O)c3c(c(O)c1C2=O)C[C@@](O)(C(C)=O)C[C@@H]3O[C@H]1C[C@H](N)[C@H](O)[C@H](C)O1` [DAUNORUBICIN], the Activity in the data set on PANC-1 turned out to be 32.2%.

`COc1cccc2c1C(=O)c1c(O)c3c(c(O)c1C2=O)C[C@@](O)(C(=O)CO)C[C@@H]3O[C@H]1C[C@H](N)[C@H](O)[C@H](C)O1` [DOXORUBICIN] gave a half-life in data set [1] of 29.4 h.

(Values after ChEMBL document CHEMBL6114947, “Navigating cancer therapy: Harnessing the power of peptide-drug conjugates as precision delivery vehicles” (Eur J Med Chem, 2025).)
